Assay results reported in US20240391941A1, “NAPHTHYRIDINONE DERIVATIVES FOR THE TREATMENT OF A DISEASE OR DISORDER” (Novartis AG, priority 2023, published 2024).

How the values were obtained:
[1] = target: T1, GIRK1/4 (Homo sapiens, UniProt P48544+P48549); assay: GIRK1/4 in vitro activity assay (IonWorks Quattro population patch clamp); assay type: cell-based; conditions: GIRK 1/4 HEK293 stable cells, inward potassium current; read-out: inhibitory activity (IC50)
T1 sequence (P48549 1-501): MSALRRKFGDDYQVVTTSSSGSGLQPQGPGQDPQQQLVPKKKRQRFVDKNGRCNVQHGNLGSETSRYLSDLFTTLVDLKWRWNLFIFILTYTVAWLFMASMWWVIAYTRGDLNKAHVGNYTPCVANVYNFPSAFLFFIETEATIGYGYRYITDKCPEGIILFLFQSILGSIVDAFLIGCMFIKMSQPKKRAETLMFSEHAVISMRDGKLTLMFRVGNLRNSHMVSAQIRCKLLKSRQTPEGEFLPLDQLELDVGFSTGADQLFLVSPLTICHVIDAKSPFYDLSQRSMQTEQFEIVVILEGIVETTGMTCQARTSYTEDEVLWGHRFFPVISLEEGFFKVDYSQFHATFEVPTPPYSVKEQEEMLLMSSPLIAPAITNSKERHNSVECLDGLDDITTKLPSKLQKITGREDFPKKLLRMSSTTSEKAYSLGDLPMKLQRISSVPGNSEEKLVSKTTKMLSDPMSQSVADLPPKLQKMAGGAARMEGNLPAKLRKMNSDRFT
T1 sequence (P48544 1-419): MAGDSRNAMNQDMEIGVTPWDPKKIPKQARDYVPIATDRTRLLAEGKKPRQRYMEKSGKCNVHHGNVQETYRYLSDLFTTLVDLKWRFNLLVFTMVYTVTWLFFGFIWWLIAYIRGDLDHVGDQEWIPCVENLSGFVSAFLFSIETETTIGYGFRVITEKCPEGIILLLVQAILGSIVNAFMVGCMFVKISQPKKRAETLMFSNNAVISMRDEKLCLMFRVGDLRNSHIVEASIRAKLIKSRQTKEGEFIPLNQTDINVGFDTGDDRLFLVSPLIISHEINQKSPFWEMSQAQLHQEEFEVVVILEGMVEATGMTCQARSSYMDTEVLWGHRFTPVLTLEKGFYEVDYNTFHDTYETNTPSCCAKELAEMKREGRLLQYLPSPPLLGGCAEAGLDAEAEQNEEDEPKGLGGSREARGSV
Description: The GIRK1/4 activity of the parent compounds formed after cleavage upon hydrolysis of the phosphoric acid ester group of the compounds according to the present disclosure was assessed by the following in vitro method.
• a. External buffer: 10 mM NaCl, 50 mM Na Gluconate, 80 mM K Gluconate, 1.8 mM CaCl2, 1 mM MgCl2, 10 mM HEPES, 10 mM Glucose, pH 7.4; osmolarity […]. • b. Internal buffer: 30 mM KCl, 100 mM K Gluconate, 1 mM MgCl2, 10 mM HEPES, 1 mM EGTA, 10 mM NaCl, pH 7.2; osmolarity […].
• c. Prepare seven-fold compound dilution series (10 mM to 20 μM) in 100% DMSO, in 384-well polypropylene plates. • d. Propafenone (Sigma Aldrich, catalog number P4670) was used as a positive control and DMSO for neutral control. • e. Resuspend 1 μl of compounds in DMSO into 66.7 μl external buffer in 384-well polypropylene plate and load into Plate 1 section of Molecular Devices Quattro.
• f. […]
Quattro was controlled using IonWorks v2 software to perform the following steps: • p. […] Measured magnitude of inward potassium current at time point between 1200-1220 ms from start of Pulse 1 (i.e. during the voltage ramp phase). • t. […]
IC50 values were calculated by plotting the percentage of current inhibition (normalized to the DMSO-only control) as a function of compound concentration using standard data analysis software.

[2] = In vitro conversion of pro-drug to parent compound by intestinal S9 fraction (dog); assay type: in vitro ADME; conditions: beagle, pooled intestinal S9 fraction, 37° C., read-out: T1/2 of conversion to the parent compound
Description: (§1) Drug stock solutions (100 μM) were prepared in methanol by two subsequent 1:10 dilutions from 10 mM DMSO drug solutions.
(§2) Frozen pooled intestinal S9 fractions (final protein concentration 2 mg/mL), alamethicin (25 μg/mg). 0.IM phosphate buffer containing 1 mM magnesium chloride and NADPH (final concentration 1 mM) plus UDPGA (final concentration 3.5 mM) are pre incubated at 37° C. prior to the addition of test compound (final substrate concentration 1 μM; final DMSO concentration 0.25%) to initiate the reaction. An additional incubation is performed in the absence of cofactors (NADPH, UDPGA).
(§3) Incubation plate was incubated on a shaker with temperature controlled at 37° C. Sequential samples were removed at designated timepoints (0, 5, 15, 30, 60 and 120 mins) and quenched with 4 volumes of ice-cold acetonitrile (containing internal standard glyburide). At the end of the incubation, samples plates were centrifuged, and supernatants reconstituted in water. Samples were then analyzed by LC/MS to assess parent depletion.
(§4) A ratio of compound peak area/internal standard peak area for each time point is generated and subsequently expressed as % of the response at time 0. The percentage stability of a compound in intestinal S9 solution at time t is calculated as detailed in Equation 1: […]
(§5) The half-life (t1/2) is calculated using the Equation 2: […]

[3] = In vitro conversion of pro-drug to parent compound by intestinal S9 fraction (human); assay type: in vitro ADME; conditions: pooled intestinal S9 fraction, 37° C., read-out: T1/2 of conversion to the parent compound
Description: as §1, §2, §3, §4, §5

[4] = In vitro conversion of pro-drug to parent compound by intestinal S9 fraction (rat); assay type: in vitro ADME; conditions: Sprague-Dawley, pooled intestinal S9 fraction, 37° C., read-out: T1/2 of conversion to the parent compound
Description: as §1, §2, §3, §4, §5

Compound | IC50 [1] | half-life at 1 μM ([2]; dog intestinal S9, + cofactor (NADPH, UDPGA)) | half-life at 1 μM ([2]; dog intestinal S9, − cofactor) | half-life at 1 μM ([3]; human intestinal S9, + cofactor (NADPH, UDPGA)) | half-life at 1 μM ([3]; human intestinal S9, − cofactor) | half-life at 1 μM ([4]; rat intestinal S9, + cofactor (NADPH, UDPGA)) | half-life at 1 μM ([4]; rat intestinal S9, − cofactor)
CNC(=O)[C@@H](O)COc1ncc(Cl)c2c1c(=O)cc(C)n2-c1c(Cl)cc(OCCOP(=O)(O)O)cc1Cl [Example 1, (S)-2-(3,5-dichloro-4-(8-chloro-5-(2-hydroxy-3-(methylamino)-3-oxopropoxy)-2-methyl-4-oxo-1,6-naphthyridin-1 (4H)-yl)phenoxy)ethyl dihydrogen phosphate] | > 10 µM |  |  |  |  |  | 
CNC(=O)[C@@H](O)COc1ncc(Cl)c2c1c(=O)cc(C)n2-c1c(Cl)cc(OCCOP(=O)(O)O)cc1Cl.[Ca] [Example 1a, (S)-2-(3,5-dichloro-4-(8-chloro-5-(2-hydroxy-3-(methylamino)-3-oxopropoxy)-2-methyl-4-oxo-1,6-naphthyridin-1(4H)-yl)phenoxy)ethyl dihydrogen phosphate calcium salt] |  | 45.3 min | 46 min | 88.7 min | 86.7 min | 14.4 min | 16.5 min
CNC(=O)[C@H](COc1ncc(Cl)c2c1c(=O)cc(C)n2-c1c(Cl)cc(OCCO)cc1Cl)OP(=O)(O)O [Example 2, (S)-3-((8-chloro-1-(2,6-dichloro-4-(2-hydroxyethoxy)phenyl)-2-methyl-4-oxo-1,4-dihydro-1,6-naphthyridin-5-yl)oxy)-1-(methylamino)-1-oxopropan-2-yl dihydrogen phosphate] | > 10 µM |  |  |  |  |  | 
